Experimental data reported in ChEMBL document CHEMBL1201862, “PubChem BioAssay data set” (2004).
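Method: 48-hour compound exposure of cells in 96-well plates, five concentrations, linear interpolation of endpoints. Here, GI50 denotes the concentration required for 50% inhibition of growth.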 The source made the active and inactive calls. No stated cut-off is given here; in the data, active = GI50 up to about 1.1 µM and inactive = higher.

Tests used:
Assay in all cases: NCI-60 cell line screen, 48 h
T47D = test system: T47D
OVCAR-8 = test system: OVCAR-8
KM12 = test system: KM12
OVCAR-3 = test system: OVCAR-3
NCI-H460 = test system: NCI-H460
HCT-116 = test system: HCT-116
HT-29 = test system: HT-29
DU-145 = test system: DU-145
IGROV-1 = test system: IGROV-1
SNB-19 = test system: SNB-19
CAKI-1 = test system: CAKI-1
OVCAR-5 = test system: OVCAR-5
LOX IMVI = test system: LOX IMVI
TK-10 = test system: TK-10
ACHN = test system: ACHN
CCRF-CEM = test system: CCRF-CEM
SK-MEL-2 = test system: SK-MEL-2
A549 = test system: A549
NCI/ADR-RES = test system: NCI/ADR-RES
OVCAR-4 = test system: OVCAR-4
SW-620 = test system: SW-620
BT-549 = test system: BT-549
SNB-75 = test system: SNB-75
EKVX = test system: EKVX
SK-OV-3 = test system: SK-OV-3
K562 = test system: K562
HOP-62 = test system: HOP-62
HCT-15 = test system: HCT-15
Malme-3M = test system: Malme-3M
SN12C = test system: SN12C
NCI-H522 = test system: NCI-H522
NCI-H226 = test system: NCI-H226
RXF 393 = test system: RXF 393
MCF7 = test system: MCF7
SF-295 = test system: SF-295
SF-268 = test system: SF-268
HOP-92 = test system: HOP-92
SF-539 = test system: SF-539
MDA-MB-435 = test system: MDA-MB-435
UO-31 = test system: UO-31
786-0 = test system: 786-0
NCI-H23 = test system: NCI-H23
MDA-MB-231 = test system: MDA-MB-231
SK-MEL-5 = test system: SK-MEL-5
SK-MEL-28 = test system: SK-MEL-28
MDA-N = test system: MDA-N
Hs-578T = test system: Hs-578T
UACC-257 = test system: UACC-257
MOLT-4 = test system: MOLT-4
COLO 205 = test system: COLO 205
RPMI-8226 = test system: RPMI-8226
A498 = test system: A498
HCC 2998 = test system: HCC 2998
M14 = test system: M14
HL-60 = test system: HL-60
PC-3 = test system: PC-3
UACC-62 = test system: UACC-62
U-251 = test system: U-251
SR = test system: SR

Measured: GI50

C=CCN(c1cc(OCc2ccccc2)c(NC(C)=O)cc1[N+](=O)[O-])S(C)(=O)=O
inactive: T47D 29.3 µM | OVCAR-8 23.1 µM | KM12 > 100 µM | OVCAR-3 34.9 µM | NCI-H460 > 100 µM | HCT-116 28.5 µM | HT-29 > 100 µM | DU-145 > 100 µM | IGROV-1 21.1 µM | SNB-19 17.9 µM | CAKI-1 42 µM | OVCAR-5 > 100 µM | LOX IMVI 50.6 µM | TK-10 36.5 µM | ACHN 52.7 µM | CCRF-CEM > 100 µM | SK-MEL-2 26.9 µM | A549 33.2 µM | NCI/ADR-RES 29.6 µM | OVCAR-4 > 100 µM | SW-620 > 100 µM | BT-549 28.8 µM | SNB-75 20 µM | EKVX 7.05 µM | SK-OV-3 17.9 µM | K562 > 100 µM | HOP-62 22 µM | Malme-3M 26.7 µM | SN12C 29 µM | NCI-H522 35.5 µM | NCI-H226 12.7 µM | RXF 393 18.7 µM | MCF7 52.2 µM | SF-295 23.5 µM | SF-268 21.3 µM | HOP-92 19.2 µM | SF-539 17.2 µM | MDA-MB-435 > 100 µM | UO-31 33.1 µM | 786-0 20.6 µM | NCI-H23 18.4 µM | MDA-MB-231 15.7 µM | SK-MEL-5 > 100 µM | SK-MEL-28 > 100 µM | MDA-N > 100 µM | Hs-578T 24.2 µM | UACC-257 > 100 µM | MOLT-4 > 100 µM | COLO 205 > 100 µM | RPMI-8226 46.7 µM | A498 19.3 µM | HCC 2998 > 100 µM | M14 38.3 µM | HL-60 > 100 µM | PC-3 > 100 µM | UACC-62 58.9 µM
> 100 µM: HCT-15

Cc1nc2c(=O)[nH]ncc2[nH]1
> 100 µM: HCT-15
active: SNB-75 0.968 µM
inactive: T47D > 100 µM | OVCAR-8 > 100 µM | KM12 84.1 µM | OVCAR-3 > 100 µM | NCI-H460 > 100 µM | HCT-116 > 100 µM | HT-29 > 100 µM | DU-145 > 100 µM | IGROV-1 > 100 µM | SNB-19 > 100 µM | CAKI-1 > 100 µM | OVCAR-5 > 100 µM | TK-10 > 100 µM | ACHN > 100 µM | CCRF-CEM > 100 µM | U-251 > 100 µM | SK-MEL-2 > 100 µM | A549 > 100 µM | NCI/ADR-RES > 100 µM | SW-620 > 100 µM | BT-549 > 100 µM | SR > 100 µM | EKVX > 100 µM | K562 > 100 µM | HOP-62 > 100 µM | SN12C > 100 µM | NCI-H226 > 100 µM | RXF 393 > 100 µM | MCF7 > 100 µM | SF-295 > 100 µM | SF-268 > 100 µM | SF-539 > 100 µM | MDA-MB-435 > 100 µM | UO-31 > 100 µM | 786-0 > 100 µM | NCI-H23 > 100 µM | MDA-MB-231 > 100 µM | SK-MEL-5 > 100 µM | SK-MEL-28 > 100 µM | MDA-N > 100 µM | Hs-578T > 100 µM | UACC-257 > 100 µM | MOLT-4 > 100 µM | COLO 205 > 100 µM | RPMI-8226 > 100 µM | A498 > 100 µM | M14 > 100 µM | HL-60 64 µM | PC-3 > 100 µM | UACC-62 > 100 µM
